The test system of one data set is CMV IE1 protein. Description: Western blot of IE1 protein in AD169^R-infected NHDFs. The format is cell-based, Human cytomegalovirus. As to conditions: AD169^R-infected NHDF, 24hpi; MBX-4992 1-10 μM, ganciclovir 5 μM, convallotoxin 0.01 μM. Background: A western blot detects proteins with antibodies after separation by electrophoresis.
Another data set concerns VZV Ellen. Description: Herpes virus panel, VZV CPE. The format is cell-based, Varicella-Zoster virus. As to conditions: HFF.
A further data set concerns Zika virus. Description: Other viral pathogens, Zika virus. As to conditions: data not shown. The format is cell-based.
Another data set has as its system HCMV AD169. Description: Herpes virus panel, HCMV AD169 CPE. The format is cell-based, Human cytomegalovirus. As to conditions: HCMV AD169, HFF.
Data set [1] deals with AD169^R. The experiment in a line: Cell pre-treatment wash / no wash infection assay. As to conditions: cells pre-treated, AD169^R 30 mins at 4°C; MBX-4992 10μM, heparin 50μg/ml; 24hpi. The format is cell-based, Human cytomegalovirus.
A further data set has as its system HHV-8 BCBL-1. Description: Herpes virus panel, HHV-8 qPCR. As to conditions: HHV-8 BCBL-1, BCBL-1 cells. The format is cell-based, Human herpes virus 8. Background: Quantitative PCR measures a nucleic acid by following its amplification.
For another data set, the system named is dengue. Description: Other viral pathogens, dengue. The format is cell-based. As to conditions: data not shown.
The subject of the next data set is HSV-2 G. The experiment in a line: Herpes virus panel, HSV-2 CPE. The format is cell-based, Herpes simplex virus 2. As to conditions: HFF.
The next data set concerns hepatitis B. The experiment in a line: Other viral pathogens, hepatitis B. The format is cell-based. As to conditions: data not shown.
A further data set has as its system HHV-6B Z29. Description: Herpes virus panel, HHV-6B qPCR. The format is cell-based, Human herpes virus 6B. As to conditions: HHV-6B Z29, MOLT-3, qPCR.
Another data set deals with GP Lung. As to conditions: GP Lung cells, GpCMV assay.
For another data set, the system named is HSV-1 E-377. Description: Herpes virus panel, HSV-1 CPE. The format is cell-based, Herpes simplex virus 1. As to conditions: HSV-1 E-377, HFF.
For another data set, the system named is MCMV Smith. Description: Herpes virus panel, MCMV qPCR. The format is cell-based, Murine cytomegalovirus. As to conditions: MEF.
The test system of the next data set is MOLT-3. As to conditions: MOLT-3, HHV-6B assay.
The subject of data set [2] is AD169^R. Description: Virus pre-incubation wash / no wash infection assay. The format is cell-based, Human cytomegalovirus. As to conditions: MBX-4992 pre-incubated with virus, 24hpi.
Another data set deals with EBV Akata. The experiment in a line: Herpes virus panel, EBV qPCR. As to conditions: Akata cells. The format is cell-based, Epstein-Barr virus.
The subject of the next data set is GpCMV 22122. The experiment in a line: Herpes virus panel, GpCMV qPCR. The format is cell-based, Guinea pig cytomegalovirus. As to conditions: GpCMV 22122, GP Lung cells.
Another data set deals with influenza A H1N1. The experiment in a line: Other viral pathogens, influenza A H1N1. The format is cell-based. As to conditions: data not shown.
A further data set has as its system HCMV GDGr K17 (GCV^R). The format is cell-based, Human cytomegalovirus. As to conditions: HFF, CPE.
The next data set has as its system BCBL-1. As to conditions: BCBL-1 cells, HHV-8 assay.
Another data set has as its system yellow fever. The format is cell-based.
The subject of another data set is respiratory syncytial. The experiment in a line: Other viral pathogens, respiratory syncytial virus. The format is cell-based. As to conditions: data not shown.
In data set [3] the test system is AD169^R and TB40/E strains. The experiment in a line: Infectivity assay, AD169^R and TB40/E in NHDF and ARPE-19. As to conditions: read-out: IC50 values (range), NHDF and ARPE-19 cells, 24hpi. The format is cell-based, Human cytomegalovirus.
In the next data set the test system is Akata. As to conditions: Akata cells, EBV assay.
The next data set concerns MEF. As to conditions: MCMV assay.
The test system of data set [4] is TB40/E. Description: Infectivity assay, TB40/E infection of ARPE-19. As to conditions: TB40/E-infected ARPE-19, 24hpi. The format is cell-based, Human cytomegalovirus.
For data set [5], the system named is AD169^R. The experiment in a line: Infectivity assay, AD169^R infection of NHDF. As to conditions: AD169^R-infected NHDF, 24hpi. The format is cell-based, Human cytomegalovirus.
For data set [6], the system named is AD169^R. The experiment in a line: Infectivity assay, AD169^R infection of ARPE-19. The format is cell-based, Human cytomegalovirus. As to conditions: AD169^R-infected ARPE-19, 24hpi.
Data set [7] deals with TB40/E. Description: Infectivity assay, TB40/E infection of NHDF. The format is cell-based, Human cytomegalovirus. As to conditions: TB40/E-infected NHDF, 24hpi.
Another data set has as its system AD169^IE2-YFP. The experiment in a line: High-content screening / dose response assay, AD169^IE2-YFP infection of HFF. The format is cell-based, Human cytomegalovirus. As to conditions: read-out: anti-CMV activity IC50, secondary validation assays.

Like-named read-outs stand apart in the source and are kept apart here. Where only a bound is given, the exact number is not on record here.

These results are taken from paper PMC9907720 (Antiviral research, 2022).

A word on the IC50: it is the concentration that gives 50% inhibition.

With `Nc1nc(O)c2ncn(COC(CO)CO)c2n1` [GCV, ganciclovir], the “IE1 expression (Western blot)” value in the data set with CMV IE1 protein is given as “did not impact IE1 expression”.

Regarding `Cc1nc(Nc2ccc(NC(=O)c3ccco3)cc2)cc(N2CCCC2)n1` [MBX-4992], the IC50 is over 30 µM in the data set on VZV Ellen; 1.7 µM in the data set with HCMV AD169; 10 µM in the data set on HHV-8 BCBL-1; over 150 µM in the data set on HSV-2 G; 43.7 µM in the data set with HHV-6B Z29; over 30 µM in the data set on HSV-1 E-377. In addition, the IC50 in the data set on MCMV Smith is 4.5 µM; in the data set on EBV Akata it was 30.9 µM; with GpCMV 22122, over 30 µM; in the data set on HCMV GDGr K17 (GCV^R), 1.8 µM; in [3], 1.9 to 4.8 µM. Moreover, the antiviral activity entry with Zika virus, in the data set with dengue, in the data set with hepatitis B, in the data set on influenza A H1N1, with yellow fever and in the data set with respiratory syncytial was “did not exhibit activity” throughout. Further, the “virus infection, compound present during infection” value with AD169^R [1] is “significantly inhibited virus during infection”. The CC50 with GP Lung is 119 µM; in the data set with HFF (HCMV AD169 assay) it was over 150 µM; with HFF (HSV-1 assay) it was 60.6 µM; in the data set on HFF (HSV-2 assay) it was over 150 µM; with HFF (VZV assay) it was 139 µM; with MOLT-3, over 100 µM. In addition, the results for the CC50 in the data set on BCBL-1, with Akata and in the data set with MEF were over 100 µM, over 100 µM and over 150 µM, respectively. Besides, the “decrease of virus infection, virus pre-incubated then washed” value with AD169^R [2] was ~ 25%. Besides, in the data set on CMV IE1 protein, the “IE1 expression (Western blot)” value is “decrease in IE1 expression”.

Regarding `Cc1nc(Nc2ccc(NC(=O)c3ccco3)cc2)cc(-n2cccn2)n1` [MBXC-4302], the half-maximal inhibitory concentration (IC50) in the data set with TB40/E [4] is about 4.5 µM; with AD169^R [5], 3 µM; in the data set on AD169^R [6], 5.8 µM; with TB40/E [7], about 4.5 µM; in the data set with AD169^IE2-YFP, 3.2 µM.

For the compound `C[C@@H]1O[C@@H](O[C@H]2CC[C@]3(C=O)[C@H]4CC[C@]5(C)[C@@H](C6=CC(=O)OC6)CC[C@]5(O)[C@@H]4CC[C@]3(O)C2)[C@H](O)[C@H](O)[C@H]1O` [convallatoxin], the “IE1 expression (Western blot)” value in the data set with CMV IE1 protein is on record as “inhibited IE1 expression”.

On to heparin [reference compound], for which the “virus infection, compound present during infection” value in the data set with AD169^R [1] is “significantly inhibited virus during infection”.
